Assay results taken from ChEMBL document CHEMBL3885861, “Open TG-GATES”.

Species on record: Rattus norvegicus
Experiment: Open TG-GATES - Regimen: Daily Repeat
Assay type: toxicity, organism-based, Sprague-Dawley
Design: regimen Daily Repeat, gender Male, age 6 weeks
Conditions: in vivo, po, 0 mg/kg, route gavage, dose level Control; for APTT / Bas / Eos / Fbg / Hb / Ht / Lym / MCH / MCHC / MCV / Mono / Neu / PT / Plat / RBC / Ret / WBC: tissue Blood; for KIDNEY_L / KIDNEY_R / KIDNEY_TOTAL: tissue Kidney; for LIVER: tissue Liver; for A/G / ALP / ALT / AST / BUN / CRE / Ca / Cl / DBIL / GLC / IP / K / LDH / Na / PL / RALB / TBIL / TC / TG / TP / gamma-GTP: tissue Plasma

Work on `CCSCC[C@H](N)C(=O)O` [ETHIONINE] yielded a TERMINAL_BW (72 h, time 3 day) of 234.6 g, an APTT (72 h, time 3 day) of 19.8 s and a Bas (72 h, time 3 day) of 0%. The Eos (72 h, time 3 day) was 1%, the Fbg (72 h, time 3 day) was 226.8 mg/dL and the Hb (72 h, time 3 day) was 13 g/dL. The Ht (72 h, time 3 day) was 38.3%, the Lym (72 h, time 3 day) was 78.2% and the MCH (72 h, time 3 day) was 21 pg. The MCHC (72 h, time 3 day) was 34%, the MCV (72 h, time 3 day) was 61.7 fL and the Mono (72 h, time 3 day) was 3%. The Neu (72 h, time 3 day) was 17.2%, the PT (72 h, time 3 day) was 12 s and the Plat (72 h, time 3 day) was 126.2 x10_4/uL. It also gave an RBC (72 h, time 3 day) of 621.6 x10_4/ul, a Ret (72 h, time 3 day) of 5.9% and a WBC (72 h, time 3 day) of 113.1 x10_2/uL. It also gave a KIDNEY_L (72 h, time 3 day) of 1.1 g, a KIDNEY_R (72 h, time 3 day) of 1.1 g and a KIDNEY_TOTAL (72 h, time 3 day) of 2.1 g. For the same molecule, the LIVER (72 h, time 3 day) was 10.9 g, the A/G (72 h, time 3 day) was 1.6 and the ALP (72 h, time 3 day) was 977.6 IU/L. For the same molecule, the ALT (72 h, time 3 day) was 35.6 IU/L, the AST (72 h, time 3 day) was 68 IU/L and the BUN (72 h, time 3 day) was 13.8 mg/dL. For the same molecule, the CRE (72 h, time 3 day) was 0.4 mg/dL, the Ca (72 h, time 3 day) was 10.8 mg/dL and the Cl (72 h, time 3 day) was 101 meq/L. For the same molecule, the DBIL (72 h, time 3 day) was 0.08 mg/dL, the GLC (72 h, time 3 day) was 210.2 mg/dL and the IP (72 h, time 3 day) was 7.8 mg/dL. It also gave a K (72 h, time 3 day) of 3.9 meq/L, an LDH (72 h, time 3 day) of 174.8 IU/L and a Na (72 h, time 3 day) of 140.4 meq/L. It also gave a PL (72 h, time 3 day) of 149 mg/dL, an RALB (72 h, time 3 day) of 3.4 g/dL and a TBIL (72 h, time 3 day) of 0.1 mg/dL. It also gave a TC (72 h, time 3 day) of 74 mg/dL, a TG (72 h, time 3 day) of 99.2 mg/dL and a TP (72 h, time 3 day) of 5.5 g/dL. The gamma-GTP (72 h, time 3 day) was 1 IU/L, the TERMINAL_BW ([…], time 7 day) was 269.1 g and the TERMINAL_BW ([…], time 14 day) was 307.1 g. It also gave a TERMINAL_BW ([…], time 28 day) of 407.1 g, an APTT ([…], time 7 day) of 20.5 s and a Bas ([…], time 7 day) of 0%. For the same molecule, the Eos ([…], time 7 day) was 0.8%, the Fbg ([…], time 7 day) was 222.8 mg/dL and the Hb ([…], time 7 day) was 14 g/dL. The Ht ([…], time 7 day) was 41.2%, the Lym ([…], time 7 day) was 79% and the MCH ([…], time 7 day) was 21.1 pg. It also gave an MCHC ([…], time 7 day) of 34%, an MCV ([…], time 7 day) of 61.8 fL and a Mono ([…], time 7 day) of 2.8%. It also gave a Neu ([…], time 7 day) of 16.6%, a PT ([…], time 7 day) of 12.1 s and a Plat ([…], time 7 day) of 123.3 x10_4/uL. It also gave an RBC ([…], time 7 day) of 666 x10_4/ul, a Ret ([…], time 7 day) of 5.6% and a WBC ([…], time 7 day) of 125.1 x10_2/uL. For the same molecule, the APTT ([…], time 14 day) was 18.9 s, the Bas ([…], time 14 day) was 0% and the Eos ([…], time 14 day) was 1%. The Fbg ([…], time 14 day) was 213.6 mg/dL, the Hb ([…], time 14 day) was 14.5 g/dL and the Ht ([…], time 14 day) was 42.1%. The Lym ([…], time 14 day) was 77.2%, the MCH ([…], time 14 day) was 20.3 pg and the MCHC ([…], time 14 day) was 34.5%. For the same molecule, the MCV ([…], time 14 day) was 58.9 fL, the Mono ([…], time 14 day) was 2.4% and the Neu ([…], time 14 day) was 18.8%. The PT ([…], time 14 day) was 11.9 s, the Plat ([…], time 14 day) was 114.5 x10_4/uL and the RBC ([…], time 14 day) was 714.8 x10_4/ul. It also gave a Ret ([…], time 14 day) of 3.8%, a WBC ([…], time 14 day) of 113.5 x10_2/uL and an APTT ([…], time 28 day) of 20.5 s. For the same molecule, the Bas ([…], time 28 day) was 0%, the Eos ([…], time 28 day) was 1% and the Fbg ([…], time 28 day) was 216 mg/dL. It also gave a Hb ([…], time 28 day) of 15.3 g/dL, a Ht ([…], time 28 day) of 43.5% and a Lym ([…], time 28 day) of 79.2%. For the same molecule, the MCH ([…], time 28 day) was 19.6 pg, the MCHC ([…], time 28 day) was 35.1% and the MCV ([…], time 28 day) was 55.9 fL. It also gave a Mono ([…], time 28 day) of 2%, a Neu ([…], time 28 day) of 16.8% and a PT ([…], time 28 day) of 12.4 s. It also gave a Plat ([…], time 28 day) of 113.3 x10_4/uL, an RBC ([…], time 28 day) of 778.4 x10_4/ul and a Ret ([…], time 28 day) of 2.2%. For the same molecule, the WBC ([…], time 28 day) was 104.9 x10_2/uL, the KIDNEY_L ([…], time 7 day) was 1.1 g and the KIDNEY_R ([…], time 7 day) was 1.1 g. It also gave a KIDNEY_TOTAL ([…], time 7 day) of 2.2 g, a KIDNEY_L ([…], time 14 day) of 1.2 g and a KIDNEY_R ([…], time 14 day) of 1.2 g. For the same molecule, the KIDNEY_TOTAL ([…], time 14 day) was 2.4 g, the KIDNEY_L ([…], time 28 day) was 1.5 g and the KIDNEY_R ([…], time 28 day) was 1.5 g. For the same molecule, the KIDNEY_TOTAL ([…], time 28 day) was 2.9 g, the LIVER ([…], time 7 day) was 12.6 g and the LIVER ([…], time 14 day) was 13 g. The LIVER ([…], time 28 day) was 16.6 g, the A/G ([…], time 7 day) was 1.5 and the ALP ([…], time 7 day) was 874.2 IU/L. The ALT ([…], time 7 day) was 34.6 IU/L, the AST ([…], time 7 day) was 62.2 IU/L and the BUN ([…], time 7 day) was 16.8 mg/dL. The CRE ([…], time 7 day) was 0.4 mg/dL, the Ca ([…], time 7 day) was 10.7 mg/dL and the Cl ([…], time 7 day) was 103.2 meq/L. It also gave a DBIL ([…], time 7 day) of 0.092 mg/dL, a GLC ([…], time 7 day) of 198 mg/dL and an IP ([…], time 7 day) of 7.6 mg/dL. For the same molecule, the K ([…], time 7 day) was 3.8 meq/L, the LDH ([…], time 7 day) was 173.8 IU/L and the Na ([…], time 7 day) was 140.6 meq/L. For the same molecule, the PL ([…], time 7 day) was 153 mg/dL, the RALB ([…], time 7 day) was 3.5 g/dL and the TBIL ([…], time 7 day) was 0.2 mg/dL. The TC ([…], time 7 day) was 70.6 mg/dL, the TG ([…], time 7 day) was 131.8 mg/dL and the TP ([…], time 7 day) was 5.8 g/dL. The gamma-GTP ([…], time 7 day) was 0.8 IU/L, the A/G ([…], time 14 day) was 1.5 and the ALP ([…], time 14 day) was 742.4 IU/L. The ALT ([…], time 14 day) was 34.8 IU/L, the AST ([…], time 14 day) was 60.6 IU/L and the BUN ([…], time 14 day) was 16 mg/dL. It also gave a CRE ([…], time 14 day) of 0.4 mg/dL, a Ca ([…], time 14 day) of 10.6 mg/dL and a Cl ([…], time 14 day) of 102.4 meq/L. For the same molecule, the DBIL ([…], time 14 day) was 0.082 mg/dL, the GLC ([…], time 14 day) was 240.8 mg/dL and the IP ([…], time 14 day) was 7.6 mg/dL. The K ([…], time 14 day) was 3.4 meq/L, the LDH ([…], time 14 day) was 177.2 IU/L and the Na ([…], time 14 day) was 141 meq/L. It also gave a PL ([…], time 14 day) of 144.6 mg/dL, an RALB ([…], time 14 day) of 3.5 g/dL and a TBIL ([…], time 14 day) of 0.1 mg/dL. The TC ([…], time 14 day) was 70 mg/dL, the TG ([…], time 14 day) was 125.2 mg/dL and the TP ([…], time 14 day) was 5.8 g/dL. The gamma-GTP ([…], time 14 day) was 0.8 IU/L, the A/G ([…], time 28 day) was 1.3 and the ALP ([…], time 28 day) was 506.2 IU/L. It also gave an ALT ([…], time 28 day) of 32.2 IU/L, an AST ([…], time 28 day) of 65.2 IU/L and a BUN ([…], time 28 day) of 18.8 mg/dL. For the same molecule, the CRE ([…], time 28 day) was 0.5 mg/dL, the Ca ([…], time 28 day) was 10.4 mg/dL and the Cl ([…], time 28 day) was 103 meq/L. The DBIL ([…], time 28 day) was 0.1 mg/dL, the GLC ([…], time 28 day) was 233 mg/dL and the IP ([…], time 28 day) was 7.1 mg/dL. It also gave a K ([…], time 28 day) of 3.8 meq/L, an LDH ([…], time 28 day) of 223.6 IU/L and a Na ([…], time 28 day) of 141.2 meq/L. It also gave a PL ([…], time 28 day) of 145.8 mg/dL, an RALB ([…], time 28 day) of 3.4 g/dL and a TBIL ([…], time 28 day) of 0.1 mg/dL. It also gave a TC ([…], time 28 day) of 72 mg/dL, a TG ([…], time 28 day) of 115.2 mg/dL and a TP ([…], time 28 day) of 6.1 g/dL. The gamma-GTP ([…], time 28 day) was 0.8 IU/L.
